From patent US12421232B2, “Kinase inhibitor compounds and compositions and methods of use” (ICAHN SCHOOL OF MEDICINE AT MOUNT SINAI, priority 2018, dated 2025)
Changes are numbered by the printed parent chain. Where two headings read alike, the source gives them in different places. Marks after values point to notes of the source that are not given here.

What was measured:
Assay in all cases: KINOMEscan Assay (DiscoverX)
Assay type in all cases: binding
[1] = target: T1, IRAK1 (Homo sapiens, UniProt P51617); settings: read-out: % DMSO Ctrl
T1 construct: purchased DiscoverX
T1 sequence (P51617 whole entry): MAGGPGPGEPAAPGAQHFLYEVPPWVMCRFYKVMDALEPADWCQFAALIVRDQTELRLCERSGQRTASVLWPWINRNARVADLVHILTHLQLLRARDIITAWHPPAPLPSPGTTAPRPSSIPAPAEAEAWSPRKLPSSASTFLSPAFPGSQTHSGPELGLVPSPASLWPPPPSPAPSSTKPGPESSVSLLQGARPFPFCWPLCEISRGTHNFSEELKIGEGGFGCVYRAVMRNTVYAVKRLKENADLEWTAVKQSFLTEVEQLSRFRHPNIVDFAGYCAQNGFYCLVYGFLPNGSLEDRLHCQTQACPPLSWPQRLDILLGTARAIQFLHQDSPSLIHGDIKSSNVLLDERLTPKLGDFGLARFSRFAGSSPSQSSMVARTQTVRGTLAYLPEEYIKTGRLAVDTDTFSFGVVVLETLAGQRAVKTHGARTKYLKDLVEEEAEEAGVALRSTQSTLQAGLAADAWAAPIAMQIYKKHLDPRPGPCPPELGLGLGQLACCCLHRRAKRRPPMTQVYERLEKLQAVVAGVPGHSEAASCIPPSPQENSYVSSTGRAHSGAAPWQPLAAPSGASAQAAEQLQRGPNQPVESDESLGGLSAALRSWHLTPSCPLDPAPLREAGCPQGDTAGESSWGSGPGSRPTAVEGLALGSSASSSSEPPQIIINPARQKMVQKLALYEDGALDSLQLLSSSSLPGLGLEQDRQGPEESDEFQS

[2] = target: T2, PIM3 (Homo sapiens, UniProt Q86V86); settings: read-out: % DMSO Ctrl
T2 construct: purchased DiscoverX

[3] = target: T3, CLK1 (Homo sapiens, UniProt P49759); settings: read-out: % DMSO Ctrl
T3 construct: purchased DiscoverX
T3 sequence (P49759 whole entry): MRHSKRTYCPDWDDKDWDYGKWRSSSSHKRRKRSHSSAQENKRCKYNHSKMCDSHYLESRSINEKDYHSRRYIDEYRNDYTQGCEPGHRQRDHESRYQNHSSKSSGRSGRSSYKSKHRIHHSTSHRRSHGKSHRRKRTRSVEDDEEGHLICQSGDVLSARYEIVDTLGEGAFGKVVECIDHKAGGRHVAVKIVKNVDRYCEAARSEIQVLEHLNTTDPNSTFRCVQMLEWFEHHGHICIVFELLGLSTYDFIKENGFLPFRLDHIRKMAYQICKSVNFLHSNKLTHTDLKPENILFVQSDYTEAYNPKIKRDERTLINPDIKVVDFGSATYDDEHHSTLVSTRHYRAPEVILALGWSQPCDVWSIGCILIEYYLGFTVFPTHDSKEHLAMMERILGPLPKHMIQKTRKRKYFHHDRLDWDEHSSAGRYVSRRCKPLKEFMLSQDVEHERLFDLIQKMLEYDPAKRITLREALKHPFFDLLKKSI

[4] = target: T4, FLT3 (Homo sapiens, UniProt P36888); settings: read-out: % DMSO Ctrl
T4 construct: purchased DiscoverX
T4 sequence (P36888 27-993): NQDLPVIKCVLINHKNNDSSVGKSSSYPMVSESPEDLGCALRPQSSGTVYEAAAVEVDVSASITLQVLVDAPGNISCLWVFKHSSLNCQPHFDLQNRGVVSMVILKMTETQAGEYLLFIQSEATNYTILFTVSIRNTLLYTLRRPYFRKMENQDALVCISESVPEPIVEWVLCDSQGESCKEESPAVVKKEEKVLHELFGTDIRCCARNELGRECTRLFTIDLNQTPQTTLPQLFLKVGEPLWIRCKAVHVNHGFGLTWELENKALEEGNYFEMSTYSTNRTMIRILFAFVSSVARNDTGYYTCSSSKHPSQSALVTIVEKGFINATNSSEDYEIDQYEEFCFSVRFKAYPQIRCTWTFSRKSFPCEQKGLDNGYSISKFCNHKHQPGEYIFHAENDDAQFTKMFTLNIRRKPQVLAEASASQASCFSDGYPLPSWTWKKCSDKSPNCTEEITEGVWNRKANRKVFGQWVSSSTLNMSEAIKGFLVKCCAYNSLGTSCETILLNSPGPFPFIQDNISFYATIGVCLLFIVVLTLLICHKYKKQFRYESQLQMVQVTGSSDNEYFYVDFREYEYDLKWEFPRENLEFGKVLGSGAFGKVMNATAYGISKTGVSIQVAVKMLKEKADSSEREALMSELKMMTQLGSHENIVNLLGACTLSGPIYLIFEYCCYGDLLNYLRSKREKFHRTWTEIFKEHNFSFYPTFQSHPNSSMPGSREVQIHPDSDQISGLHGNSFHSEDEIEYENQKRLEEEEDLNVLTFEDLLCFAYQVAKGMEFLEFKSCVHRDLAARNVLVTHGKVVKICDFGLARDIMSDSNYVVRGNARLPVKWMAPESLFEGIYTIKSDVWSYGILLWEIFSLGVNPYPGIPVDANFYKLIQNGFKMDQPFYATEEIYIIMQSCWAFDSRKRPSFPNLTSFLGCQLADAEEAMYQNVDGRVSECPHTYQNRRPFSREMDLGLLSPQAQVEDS

[5] = tested on: FLT3(ITD,D835V); settings: FLT3(ITD,D835V) mutant; 10 μM
[6] = target: T5, FLT3(N841I) (Homo sapiens, UniProt P36888, N841I); settings: read-out: % DMSO Ctrl
T5 construct: purchased DiscoverX
T5 sequence (P36888 27-993 N841I): T4 sequence (P36888 27-993) with N815I

[7] = target: T6, HIPK1 (Homo sapiens, UniProt Q86Z02); settings: read-out: % DMSO Ctrl
T6 construct: purchased DiscoverX
T6 sequence (Q86Z02 whole entry): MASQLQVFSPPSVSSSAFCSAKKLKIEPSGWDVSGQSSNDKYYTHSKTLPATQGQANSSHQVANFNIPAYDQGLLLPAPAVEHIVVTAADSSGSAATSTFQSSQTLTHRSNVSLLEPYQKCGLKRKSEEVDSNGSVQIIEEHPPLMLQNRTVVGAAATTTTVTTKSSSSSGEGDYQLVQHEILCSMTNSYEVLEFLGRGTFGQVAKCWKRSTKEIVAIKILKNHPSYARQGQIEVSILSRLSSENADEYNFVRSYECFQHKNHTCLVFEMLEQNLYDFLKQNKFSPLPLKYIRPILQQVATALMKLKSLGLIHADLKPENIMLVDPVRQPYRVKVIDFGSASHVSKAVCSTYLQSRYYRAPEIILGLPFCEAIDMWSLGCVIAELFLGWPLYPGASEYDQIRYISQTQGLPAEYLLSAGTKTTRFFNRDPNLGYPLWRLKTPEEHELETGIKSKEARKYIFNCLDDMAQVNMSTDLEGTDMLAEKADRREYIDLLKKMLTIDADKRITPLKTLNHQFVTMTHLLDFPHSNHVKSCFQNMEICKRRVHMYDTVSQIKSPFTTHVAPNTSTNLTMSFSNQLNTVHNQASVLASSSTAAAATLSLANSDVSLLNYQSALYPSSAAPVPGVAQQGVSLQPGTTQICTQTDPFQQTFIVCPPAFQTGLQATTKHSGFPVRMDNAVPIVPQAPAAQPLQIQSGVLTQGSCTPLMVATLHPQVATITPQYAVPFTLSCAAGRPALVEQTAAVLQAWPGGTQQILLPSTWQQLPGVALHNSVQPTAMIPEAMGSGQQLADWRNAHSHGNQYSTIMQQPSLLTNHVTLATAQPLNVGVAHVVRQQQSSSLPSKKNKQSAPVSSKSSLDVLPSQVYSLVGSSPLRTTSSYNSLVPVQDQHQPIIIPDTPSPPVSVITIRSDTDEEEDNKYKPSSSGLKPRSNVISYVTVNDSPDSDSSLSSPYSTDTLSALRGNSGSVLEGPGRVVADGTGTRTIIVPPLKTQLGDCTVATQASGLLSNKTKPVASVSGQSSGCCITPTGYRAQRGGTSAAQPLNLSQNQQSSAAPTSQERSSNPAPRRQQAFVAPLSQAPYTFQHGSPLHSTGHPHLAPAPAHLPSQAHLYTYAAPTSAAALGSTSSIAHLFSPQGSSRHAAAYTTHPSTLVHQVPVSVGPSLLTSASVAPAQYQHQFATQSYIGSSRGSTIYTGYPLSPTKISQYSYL

[8] = target: T7, KIT(L576P) (Homo sapiens, UniProt P10721, L576P); settings: read-out: % DMSO Ctrl
T7 construct: purchased DiscoverX
T7 sequence (P10721 26-976 L576P): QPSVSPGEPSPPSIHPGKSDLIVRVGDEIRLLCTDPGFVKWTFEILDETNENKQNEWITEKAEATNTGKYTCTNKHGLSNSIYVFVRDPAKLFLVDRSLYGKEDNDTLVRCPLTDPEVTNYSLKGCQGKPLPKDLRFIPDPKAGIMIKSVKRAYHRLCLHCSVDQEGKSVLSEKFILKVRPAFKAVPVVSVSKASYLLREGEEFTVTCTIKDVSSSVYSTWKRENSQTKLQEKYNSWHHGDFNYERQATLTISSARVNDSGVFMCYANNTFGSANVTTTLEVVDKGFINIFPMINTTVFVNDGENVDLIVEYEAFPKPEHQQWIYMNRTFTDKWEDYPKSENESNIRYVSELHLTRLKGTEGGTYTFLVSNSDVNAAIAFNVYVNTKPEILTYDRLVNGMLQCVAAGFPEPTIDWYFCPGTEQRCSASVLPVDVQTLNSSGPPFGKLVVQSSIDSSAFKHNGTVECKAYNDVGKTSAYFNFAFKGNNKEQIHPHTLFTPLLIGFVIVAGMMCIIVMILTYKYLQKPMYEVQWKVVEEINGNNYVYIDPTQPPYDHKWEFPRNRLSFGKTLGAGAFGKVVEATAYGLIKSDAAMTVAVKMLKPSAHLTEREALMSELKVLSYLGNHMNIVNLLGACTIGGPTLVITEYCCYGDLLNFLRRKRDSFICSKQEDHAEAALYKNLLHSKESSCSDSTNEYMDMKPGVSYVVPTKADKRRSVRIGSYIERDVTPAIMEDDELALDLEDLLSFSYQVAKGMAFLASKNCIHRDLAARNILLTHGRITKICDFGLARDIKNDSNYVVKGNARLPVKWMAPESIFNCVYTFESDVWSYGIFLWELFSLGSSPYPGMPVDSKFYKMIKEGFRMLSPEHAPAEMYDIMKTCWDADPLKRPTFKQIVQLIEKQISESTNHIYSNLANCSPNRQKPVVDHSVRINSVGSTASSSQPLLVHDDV

[9] = target: T8, PIK3CA(I800L) (Homo sapiens, UniProt P42336, I800L); settings: read-out: % DMSO Ctrl
T8 construct: purchased DiscoverX
T8 sequence (P42336 whole entry I800L): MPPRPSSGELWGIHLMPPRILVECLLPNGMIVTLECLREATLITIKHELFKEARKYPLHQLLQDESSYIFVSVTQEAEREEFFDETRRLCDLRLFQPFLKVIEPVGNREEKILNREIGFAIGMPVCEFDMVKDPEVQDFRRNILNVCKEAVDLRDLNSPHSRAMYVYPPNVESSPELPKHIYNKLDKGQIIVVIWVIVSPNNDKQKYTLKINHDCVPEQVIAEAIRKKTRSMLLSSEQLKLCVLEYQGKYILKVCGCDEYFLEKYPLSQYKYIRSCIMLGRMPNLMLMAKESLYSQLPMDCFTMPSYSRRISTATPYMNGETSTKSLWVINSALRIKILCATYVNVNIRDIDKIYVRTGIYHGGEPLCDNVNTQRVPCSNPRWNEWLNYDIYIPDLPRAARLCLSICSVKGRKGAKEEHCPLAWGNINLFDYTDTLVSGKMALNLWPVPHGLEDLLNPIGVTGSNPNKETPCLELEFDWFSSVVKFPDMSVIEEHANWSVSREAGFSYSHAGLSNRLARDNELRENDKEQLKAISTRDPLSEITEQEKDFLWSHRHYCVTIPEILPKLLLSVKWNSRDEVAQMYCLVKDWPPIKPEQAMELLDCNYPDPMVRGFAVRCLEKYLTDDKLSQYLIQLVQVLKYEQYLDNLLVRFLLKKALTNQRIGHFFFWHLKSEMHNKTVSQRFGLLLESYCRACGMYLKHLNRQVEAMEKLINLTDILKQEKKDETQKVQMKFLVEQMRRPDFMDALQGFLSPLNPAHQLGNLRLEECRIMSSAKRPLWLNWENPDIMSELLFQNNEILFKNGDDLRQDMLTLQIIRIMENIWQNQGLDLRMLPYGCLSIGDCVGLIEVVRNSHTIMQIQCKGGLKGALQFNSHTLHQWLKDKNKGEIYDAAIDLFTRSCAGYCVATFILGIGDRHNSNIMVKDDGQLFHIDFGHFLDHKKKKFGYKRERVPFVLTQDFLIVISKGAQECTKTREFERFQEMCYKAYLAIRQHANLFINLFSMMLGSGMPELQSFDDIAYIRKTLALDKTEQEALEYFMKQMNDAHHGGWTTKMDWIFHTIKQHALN

[10] = target: T9, SGK (Homo sapiens, UniProt O00141); settings: read-out: % DMSO Ctrl
T9 construct: purchased DiscoverX
T9 sequence (O00141 1-431): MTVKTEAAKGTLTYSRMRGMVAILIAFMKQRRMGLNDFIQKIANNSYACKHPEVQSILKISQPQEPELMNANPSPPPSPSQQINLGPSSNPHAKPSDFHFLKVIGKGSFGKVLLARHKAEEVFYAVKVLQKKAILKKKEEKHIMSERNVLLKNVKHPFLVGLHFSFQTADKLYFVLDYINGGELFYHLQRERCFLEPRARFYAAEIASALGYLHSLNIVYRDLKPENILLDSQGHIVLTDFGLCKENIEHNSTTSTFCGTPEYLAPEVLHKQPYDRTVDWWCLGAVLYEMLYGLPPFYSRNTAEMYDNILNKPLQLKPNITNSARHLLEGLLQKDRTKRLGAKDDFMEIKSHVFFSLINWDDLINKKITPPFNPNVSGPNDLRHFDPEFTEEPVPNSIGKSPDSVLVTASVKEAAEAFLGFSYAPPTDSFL

SMILES	remaining binding at 10 µM [1]	remaining binding at 10 µM [2]	remaining binding at 10 µM [3]	remaining binding at 10 µM [4]	% DMSO Ctrl [5]	remaining binding at 10 µM [6]	remaining binding at 10 µM [7]	remaining binding at 10 µM ([1]; IRAK1, 10 μM)	remaining binding at 10 µM [8]	remaining binding at 10 µM [9]	remaining binding at 10 µM ([2]; PIM3, 10 μM)	remaining binding at 10 µM [10]	remaining binding at 10 µM ([4]; FLT3, 10 μM)	remaining binding at 10 µM ([6]; FLT3(N841I) mutant, 10 μM)	remaining binding at 10 µM ([8]; KIT(L576P) mutant, 10 μM)	remaining binding at 10 µM ([9]; PIK3CA(I800L) mutant, 10 μM)	remaining binding at 10 µM ([10]; SGK, 10 μM)
COc1ccc2c(c1)[nH]c1c(C)nccc12 [Harmine, reference compound]	17%	43%	–	–	–	–	–	–	–	–	–	–	–	–	–	–	–
C#CCn1c2cc(OC)ccc2c2ccnc(C)c21 [Compound 20-23a, 3-(7-Methoxy-1-methyl-β-carbolin-9-yl)-propan-1-yne]	–	–	1.9%	65%	11 ^c % DMSO Ctrl	41%	12%	42%	74%	73%	32%	63%	–	–	–	–	–
COc1ccc2c3ccnc(C)c3n(CCCc3noc(N)n3)c2c1 [Compound 20-13, 3-(3-(7-Methoxy-1-methyl-β-carbolin-9-yl)propyl)-5-amino-1,2,4-oxadiazole]	58%	39%	4.1%	86%	11 ^c % DMSO Ctrl	78%	9.5%	–	100%	10%	–	90%	–	–	–	–	–
COc1ccc2c(c1)[nH]c1c(C)nc(CO)cc12 [Compound 2-8, (1-Methyl-7-methoxy-9H-pyrido[3,4-b]indol-3-yl)methanol]	–	–	–	–	37 % DMSO Ctrl	–	–	–	–	–	15%	–	100%	74%	94%	63%	31%
